Converted amounts (≈) assume the structure as drawn.
Columns and labels:
[1] = system: Aspergillus fumigatus MF4839; assay: Broth dilution antifungal assay (MIC), Aspergillus fumigatus; type: cell-based; settings: 24 to 48 hours at 29° C., read-out: Minimum Inhibitory Concentration (MIC)
Experimental: (§1) The compounds are particularly active towards filamentous fungi and yeasts including Candida albicans and Cryptococcus neoformans. The sensitivity of filamentous fungi and yeast was determined using inhibitor dilution assays in microtiter format. The compounds were dissolved in 10% DMSO at 256 μg/mL and serially diluted in (DIFCO) Yeast Nitrogen Base supplemented with 1% glucose (YNBD) by two-fold dilutions yielding final drug concentrations ranging from 128-0.06 μg/mL. The wells were filled with 150 μL of inoculated media. Exponential phase Candida and Cryptococcus cells were diluted in YNBD such that the inoculum was 1.5-7.5×10^3 cells/mL. Aspergillus spores were harvested from a well-sporulated Sabouraud Dextrose Agar (SDA) slant in 0.01% Tween 80 and diluted into media to give an inoculum of 1×10^3 spores/mL. The microtiter dishes were incubated at 35° C. for 24 to 48 hours. […] After recording the MIC of yeasts, plates were shaken on a (SARSTEDT) TPM2 shaker to resuspend the cells and a MIC-2000 inoculator (DYNATECH) was used to transfer a 1.5 μL sample from each well in the microplate to a spot in a single-well tray containing SDA. Inoculated trays were incubated at 35° C. and results were recorded at 24 h or 48 h (for Cryptococcus). The minimum fungicidal concentration (MFC) was defined as the lowest concentration of drug showing no growth or less than 4 colonies per spot. […]

[2] = molecular target: T1, Squalene Synthase (Rattus norvegicus, UniProt Q02769); assay: Squalene synthase assay (standard in vitro protocol, rat liver microsomes, [4-14C]farnesyl pyrophosphate); type: biochemical; settings: 30° C., 20 minutes
T1 construct: The livers from these rats were homogenized in 5 volumes (mL/g) of ice cold 50 mM HEPES; from tissue; host or cells: liver microsomes of male Charles River CD rats fed 0.1% lovastatin
T1 sequence (Q02769 1-416): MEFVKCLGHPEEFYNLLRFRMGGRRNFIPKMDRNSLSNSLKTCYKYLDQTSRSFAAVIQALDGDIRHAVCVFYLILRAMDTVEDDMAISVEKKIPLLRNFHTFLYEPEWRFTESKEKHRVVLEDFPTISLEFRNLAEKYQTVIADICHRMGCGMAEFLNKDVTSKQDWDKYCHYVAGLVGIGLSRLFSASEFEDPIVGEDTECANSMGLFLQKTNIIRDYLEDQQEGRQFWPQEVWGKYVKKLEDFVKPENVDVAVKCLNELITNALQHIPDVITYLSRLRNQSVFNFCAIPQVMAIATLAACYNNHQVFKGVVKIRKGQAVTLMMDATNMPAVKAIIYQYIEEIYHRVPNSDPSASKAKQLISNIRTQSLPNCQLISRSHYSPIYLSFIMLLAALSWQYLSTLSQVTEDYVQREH
Experimental: The intrinsic squalene synthase inhibitory activity of representative compounds of this invention was measured by the standard in vitro protocol described below:
Preparation of Rat Liver Microsomes
Male, CHARLES RIVER CD® rats (120 to 150 g) were fed a diet containing 0.1% lovastatin for 4 days. The livers from these rats were homogenized in 5 volumes (mL/g) of ice cold 50 mM HEPES (4-(2-hydroxyethyl)-1-piperazine-ethanesulfonic acid), 5 mM EDTA(ethylenediaminetetraacetic acid) pH 7.5 with a Potter-Elvehjem type tissue grinder. The homogenate was centrifuged twice at 20,000× g for 15 min. at 4° C., discarding the pellet each time. The supernatant was then centrifuged at 100,000× g for 1 hr at 4° C. The resulting microsomal pellet was resuspended in a volume of the above homogenizing buffer equal to one-fifth the volume of the original homogenate. This microsomal preparation has a protein concentration of about 7 mg/mL. The microsomal suspensions were stored in aliquots at -70° C. Squalene synthase activity in these aliquots is stable for a least several months.
Partial Purification of Prenyl Transferase
Prenyl transferase was purified to use in the enzymatic synthesis of radiolabelled farnesyl pyrophosphate. […]

[3] = molecular target: T2, Farnesyl-protein transferase (Ftase) from bovine brain (Bos taurus, UniProt P29702+P49355); assay: Farnesyl-transferase assay (inhibition of Ras farnesylation in vitro); type: biochemical; settings: Ras-CVLS 3.5 μM, 0.25 μM [3H]FPP, partially purified bovine brain enzyme
T2 construct: Farnesyl-protein transferase (Ftase) from bovine brain was chromatographed on DEAE--Sephacel; from tissue; host or cells: bovine brain, partially purified by chromatography
Experimental: FARNESYL-TRANSFERASE ASSAY
Farnesyl-protein transferase (Ftase) from bovine brain was chromatographed on DEAE--Sephacel (Pharmacia, 0-0.8M NaCl gradient elution), N-octyl agarose (Sigma, 0-0.6M NaCl gradient elution), and a MONO Q HPLC column (Pharmacia, 0-0.3M NaCl gradient). Ras-CVLS at 3.5 μM, 0.25 μM [^3 H]FPP, and the indicated compounds were incubated with this partially purified enzyme preparation. The Ftase data is a measurement of the ability of the test compound to inhibit Ras farnesylation in vitro.

[4] = system: Candida albicans MY1055; assay: Minimum fungicidal concentration, Candida albicans; type: cell-based; settings: 35° C.
Experimental: as §1

[5] = system: Cryptococcus neoformans MY1051; assay: Minimum fungicidal concentration, Cryptococcus neoformans; type: cell-based; settings: 35° C.
Experimental: as §1

[6] = system: Ras farnesylation; settings: Hancock et al., Casey et al., Schafer et al.; cited from earlier work

MIC [1] [µg/mL] | IC50 [2] [nM] | IC50 [3] [nM] | Compound | MFC [4] [µg/mL] | MFC [5] [µg/mL] | Inhibition of Ras farnesylation in vivo [6]
16 (≈ 24.2 µM) | 3.5 | 3300 | C=C(CC[C@]12O[C@H](C)[C@@](O)(C(=O)O)[C@](C(=O)O)(O1)[C@H](OC(=O)/C=C/[C@@H](C)C[C@@H](C)CC)[C@H]2O)[C@@H](OC(C)=O)[C@H](C)Cc1ccccc1 [Compound 128, IIA-3-methyl] | 128 (≈ 194 µM) | 0.5 (≈ 0.757 µM) | –
– | – | – | CC[C@H](C)C(=O)O[C@H]1CCC=C2C=C[C@H](C)[C@H](CC[C@@H]3C[C@@H](O)CC(=O)O3)[C@H]21 [compactin] | – | – | Inhibition of Ras farnesylation in vivo has been demonstrated
– | – | – | CC[C@H](C)C(=O)O[C@H]1C[C@@H](C)C=C2C=C[C@H](C)[C@H](CC[C@@H]3C[C@@H](O)CC(=O)O3)[C@H]21 [lovastatin] | – | – | Inhibition of Ras farnesylation in vivo has been demonstrated
